Entries after “also recorded” stand apart in the source; their conditions may differ. Numbered stars: 1 amine (or outer) side, 2 acyl side, 3 side chain; on linkers, the order of the positions; unused ones are H or OH. Side chains are listed from the residue outwards. Peptide text beside a SMILES is read from it. * marks the point of attachment. C18 diacid = O=C(O)CCCCCCCCCCCCCCCCC(=O)*; γGlu = O=C(O)[C@H](CCC(=O)[*:2])N[*:1]; Fumaroyl = O=C(O)/C=C/C(=O)*; AEEA = NCCOCCOCC(=O)O
What was measured:
[1] = tested on: male SD rats; test: in vivo; conditions: one animal per row, observed 24 hours
Method: (§1) In an experiment about acute toxicity of intravenous administration, male SD rats weighing 200-230 g were dosed in a range between 480 µg/Kg and 30 µg/Kg via tail vein injection in a descending order of dosage. […] Toxic response and mortality of the rats were preliminarily observed, and time of death and doses without mortality of the rats were recorded. The level of acute toxicity of the polypeptides was preliminarily determined based on the doses without mortality.

[2] = in vivo; conditions: male, SD, rat, in vivo, iv
Method: as §1

[3] = intravenous (tail vein) 240 µg/Kg
[4] = intravenous (tail vein) 360 µg/Kg
[5] = intravenous (tail vein) 480 µg/Kg

SMILES | Observations of Animal Status [1, 3] | Observations of Animal Status [1, 4] | Observations of Animal Status [1, 5] | MTD at 24 h [2] | Observations of Animal Status ([1]; intravenous (tail vein) 120 µg/Kg)
CC[C@H](C)[C@H](NC(=O)[C@H](CC(=O)O)NC(=O)[C@H](CC(C)C)NC(=O)[C@H](Cc1c[nH]cn1)NC(=O)[C@H](C)NC(=O)[C@H](Cc1ccccc1)NC(=O)[C@H](Cc1ccc(O)cc1)NC(=O)[C@@H](NC(=O)[C@H](C)NC(=O)[C@H](CCC(=O)O)NC(=O)[C@H](CCCCNC(=O)COCCOCCNC(=O)COCCOCCNC(=O)CC[C@H](NC(=O)CCCCCCCCCCCCCCCCC(=O)O)C(=O)O)NC(=O)[C@H](CC(=O)O)NC(=O)/C=C/C(=O)O)C(C)C)C(=O)N[C@H](C(=O)N[C@@H](Cc1c[nH]c2ccccc12)C(=O)O)[C@@H](C)CC [BX-254] (Fumaroyl-DK([AEEA-AEEA-γGlu-C18 diacid])EAVYFAHLDIIW-OH) | No obvious abnormalities; also recorded: Developed rapid breathing, the limbs turned purple, developed breathing depression, and limbs moved like swimming at 15 minutes after administration; then died at 20 minutes after administration; also recorded: Developed rapid breathing, the limbs turned purple, and had weak limbs at 14 minutes after administration; died of breathing depression at 21 minutes after administration | The body turned purple at 16 minutes after administration; died at 26 minutes after administration | The body turned purple at 22 minutes after administration; died at 25 minutes after administration | 0.12 mg/kg | 
CC[C@H](C)[C@H](NC(=O)[C@H](CC(=O)O)NC(=O)[C@H](CC(C)C)NC(=O)[C@H](Cc1c[nH]cn1)NC(=O)[C@H](C)NC(=O)[C@H](Cc1ccccc1)NC(=O)[C@H](Cc1ccc(O)cc1)NC(=O)[C@@H](NC(=O)[C@H](C)NC(=O)[C@H](CCC(=O)O)NC(=O)[C@H](CCC(=O)O)NC(=O)[C@H](CC(=O)O)NC(=O)[C@H](CC(=O)O)NC(=O)COCCOCCNC(=O)COCCOCCNC(=O)CC[C@H](NC(=O)CCCCCCCCCCCCCCCCC(=O)O)C(=O)O)C(C)C)C(=O)N[C@H](C(=O)N[C@@H](Cc1c[nH]c2ccccc12)C(=O)O)[C@@H](C)CC [BX-255] ({C18 diacid-γGlu-AEEA-AEEA}-DDEEAVYFAHLDIIW-OH) | No obvious reaction in the first 27 minutes after administration; breathing speeded up at 27 minutes; died at 49 minutes after administration; also recorded: No obvious reaction in the first 24 minutes after administration; breathing speeded up at 27 minutes; died at 43 minutes after administration | The body turned purple at 12 minutes after administration; died at 22 minutes after administration | The body turned purple at 23 minutes after administration; died at 29 minutes after administration | 0.12 mg/kg | No obvious adverse reactions in the first 1 hour; breathing became slightly faster at nearly 2 hours; was in good condition and recovered when observed the next day; also recorded: Showed no willingness to move at 9 minutes; recovered at 1 hour and 10 minutes; also recorded: Lay still and showed no willingness to move at 12 minutes; became active at 17 minutes; signs of pain were observed in the animal through pupil observation; no pain at 28 minutes; also recorded: Developed difficulty in breathing at 17 minutes, recovered to normal in about 10 seconds; signs of pain were observed in the animal through pupil observation; no pain at 28 minutes

— EP4702986A1, “POLYPEPTIDE AND USE THEREOF” (Biocells (Beijing) Biotech Co., Ltd., priority 2023, dated 2024)
